Here are results for 91 molecules from a melting point compilation (Tetko et al.; mined from patent text by program, amines drawn as free bases though some values may be those of a salt).

Where only a bound is given, the exact number is not on record here.

As usually defined, the melting point is the temperature of the solid-liquid transition. In the case of `CC(C)C1Cc2cnc3c(c2C1=O)CCO3` (stereo unspecified), the melting point lay in the range of 68 to 69 °C.

In the case of `C=C(C)C(=O)OCCC#Cc1ccc2c(ccc3cc(OC(=O)C(=C)C)ccc32)c1`, the melting point amounted to 91 °C.

As to `Cc1nn(C)c2cc(-c3ccc(F)cc3)nc(-c3ccc(S(C)(=O)=O)cc3)c12`, the melting point lay in the range of 228 to 230 °C.

`CC(C)OC(=O)C(C(=O)O)=C1SCCS1` showed a melting point of 104 to 106 °C.

The molecule `COC(=O)c1cnc(S)n1C1CCSc2ccccc21` (stereo unspecified) gave a melting point of 163 °C.

For the molecule `CN(C)CCNC(=O)c1cccc(-c2cccc3cc(Cc4cc(F)cc(Cl)c4)sc23)c1`, the melting point lay within 126 to 127 °C.

With `CS(=O)(=O)Nc1ccccc1OC1CCCCC1=O` (stereo unspecified), the melting point lay in the range of 104 to 106 °C.

Take `C#CC1(Oc2ccc(F)cc2[N+](=O)[O-])CCN(C(=O)Oc2ccccc2)CC1`: the melting point is 82 to 83 °C.

Regarding `CC(=O)N1CCN(c2ccc(N)c(C)c2)CC1`, the melting point was in the range of 126 to 129 °C.

Consider `COC(=O)c1ccc(Cl)c(-n2nn[nH]c2=O)c1Cl`, for which the melting point lay within 192 to 193 °C.

`CCOC(=O)c1cc(=O)c2ccccc2n1C` had a melting point of 114 to 115 °C.

`N#CNC(=Nc1ccncc1)NCCOc1ccccc1`: the melting point is 167 to 170 °C.

As for `CSCCO[C@@H]1c2ccn3c(C)c(C)nc3c2N[C@H](c2ccccc2)[C@H]1O`, the melting point was in the range of 118 to 119 °C.

For `CCOC(=O)c1sc(SC)c2c1CCC(C=O)=C2Cl`, the melting point is 79 to 80 °C.

`O=c1[nH]ncc2ccc(OCC3CO3)cc12` (stereo unspecified) showed a melting point of 164 to 166 °C.

Consider `CC(=O)c1cc(-c2ccccc2)c(=O)n2c1-c1ccsc1CC2`, for which the melting point was in the range of 181 to 182 °C.

As for `CCOC(=O)Nc1ccc2nc(S(N)(=O)=O)sc2c1`, the melting point was 223 to 224 °C.

For the molecule `CC(=O)N1CCC(Oc2ccc([N+](=O)[O-])cc2C)CC1`, the melting point lay within 139 to 141 °C.

The molecule `O=C(OCCCCCCO)c1ccc(Oc2c3c(c(Oc4ccc(C(=O)OCCCCCCO)cc4)c4ccccc24)C(=O)c2ccccc2C3=O)cc1` yielded a melting point of 172 to 173 °C.

Regarding `CCOC(=O)c1cc(NCc2ccccc2)c(Nc2ccc(OC)cc2)c(S(N)(=O)=O)c1`, the melting point came out at 145 °C.

`CN1C(=O)C2(COc3cc4c(cc32)OCCO4)c2c(Oc3ccc(C(F)(F)F)cc3)cccc21` (stereo unspecified) gave a melting point of 198 to 201 °C.

Molecule `CC1SCCCNC1=O` (stereo unspecified) showed a melting point of 192 to 193 °C.

`CCc1nc(-c2cccc(C)c2)c(-c2ccnc(NCC3CCCCC3)c2)s1` gave a melting point of 74 to 75 °C.

In turn, `COC(=O)c1cn(-c2c(Cl)cc(Cl)cc2Cl)nc1C(F)(F)F` yielded a melting point of 107 to 108 °C.

`Cn1ccc2c(C(=O)c3ccccc3OCCCCl)cccc21` had a melting point of 60 °C.

`CCCCNC(=O)c1nc2cnn(CC)c2nc1OCC` returned a melting point of 115 to 117 °C.

In the case of `CCC(=O)c1ccc(OCc2cccc(C(F)(F)F)c2)cc1`, the melting point was 63 to 64 °C.

The molecule `COc1cc(-c2cnc3[nH]cc(C(=O)C45CC6CC(CC(C6)C4)C5)c3n2)cc(OC)c1OC` returned a melting point of 267 to 268 °C.

The molecule `CCNC(=O)c1cc(C(F)(F)F)ccc1[Si](C)(C)C` showed a melting point of 101 to 102 °C.

For the molecule `CCOc1cc([N+](=O)[O-])c2c(c1)C1(C)CCN(C)C1N2C` (stereo unspecified), the melting point lay within 106 to 108 °C.

As for `COC(=O)c1ccccc1COc1ccc(CCCO)cc1`, the melting point was 50.5 to 52 °C.

For the molecule `CCCCCCCCn1sc(Cl)c(Cl)c1=O`, the melting point was 44 to 47 °C.

`CN1C(=O)CN=C(c2ccccc2)c2c1cc(Cl)c(N)c2Cl` registered a melting point of 228 °C.

For the molecule `c1ccc(CNc2ccnc3ccccc23)cc1`, the melting point is 132 °C.

On to `CCCCN(C1CS(=O)(=O)c2cc([N+](=O)[O-])ccc21)S(C)(=O)=O` (stereo unspecified), for which the melting point lay within 52 to 55 °C.

`CCCCC(=O)c1c(-c2ccncc2)[nH]c(-c2ccncc2)c1C`: the melting point was in the range of 88 to 89 °C.

The molecule `CC(c1ccccc1)n1cncc1C(N)=O` (stereo unspecified) returned a melting point of 136 to 137 °C.

Molecule `CCOC(=O)C(C#N)=CNc1ccc(-c2ccccc2)cn1` returned a melting point of 119 to 126 °C.

The molecule `Cc1ccncc1-n1nc(C)c(CC(=O)OCC2CC2)c1-c1ccccc1` displayed a melting point of 87 °C.

Take `CC(=O)Oc1ccc(NC(=O)c2ccc(C3OCC(SC(C)C(O)(Cn4cncn4)c4ccc(F)cc4F)CO3)cc2)cc1` (stereo unspecified): the melting point amounted to 127 °C.

`COc1ccc(Br)cc1C(C)(C)CCl` returned a melting point of 82 to 84 °C.

Consider `O[C@@H](COc1ccccc1)CN(CCc1ccc(OCc2ccccc2)cc1)C[C@@H](O)COc1ccccc1` (racemic), for which the melting point is 106 to 110 °C.

In turn, `COC(=O)c1cc(N=[N+]=[N-])ccc1Nc1ccccc1` yielded a melting point of 64 to 65 °C.

The molecule `O=C(NCCCNS(=O)(=O)c1ccc(Oc2ccccc2)cc1)P(=O)(O)O` displayed a melting point of 165 to 168 °C.

`C=C(Cc1ccc(-c2cccc3cncn23)cc1)C(=O)O` yielded a melting point of 171 to 172 °C.

`CN1CC(C(O)C(O)C(O)CO)OC1=C(C#N)C=C1Nc2ccccc2C1=O` (stereo unspecified): the melting point worked out at 237 °C.

`COC(=O)c1ccc(-c2ccc(-c3ccccc3)c(-c3ccc4c(c3)C(C)(C)CCC4(C)C)c2)c(OC)c1` had a melting point of 144 to 146 °C.

`COc1ccc2c(c1)CCC1C2=CCC2(C)C(=O)CCC12` (stereo unspecified) displayed a melting point of 139 to 143 °C.

In turn, `CCOC(=O)/C=C/C=C/c1cc2cc(N(C)C)ccc2s1` came in with a melting point of 140 to 142 °C.

For `Cc1ccccc1C(=O)c1ccc(Nc2ccc(Br)cc2NC(=O)OCCl)cc1Cl`, the melting point lay in the range of 189 to 190 °C.

`O=C1CCC(c2cccc(Cl)c2)(c2cccc(Cl)c2)[C@@H]2CN(C(=O)Cc3ccccc3)C[C@H]12` (racemic) gave a melting point of 160 °C.

Consider `CNC(=O)N(C)c1nnc(C(C)(C)CC#N)s1`, for which the melting point was 133 to 135 °C.

The molecule `NCc1c([N+](=O)[O-])ccc(N2CCCC2)c1Cl` displayed a melting point of 71 to 73 °C.

Turning to `O=Cc1ccc(O)c(CCl)c1`, the melting point lay in the range of 123 to 124 °C.

`CCCc1c(OCCCS(=O)(=O)c2ccc(C(=O)NCC(=O)O)cc2)ccc(C(C)=O)c1O` gave a melting point of 171 to 173 °C.

With `O=C(O)COc1ccc(CCc2ccc(-c3ccc(C(F)(F)F)cc3)cc2)c2c1CCC2`, the melting point is 188 to 190 °C.

The molecule `O=C(O)CCc1ccc(SCc2coc(/C=C/c3ccccc3)n2)cc1` had a melting point of 120 to 121 °C.

In turn, `N#Cc1ccc(N2CC(C(=O)O)OC2=O)cc1` (stereo unspecified) showed a melting point of 204 °C.

On to `NC1=NCC(COc2ccccc2F)O1` (stereo unspecified), for which the melting point was found to be 124 °C.

For `CCn1nc2c(N)nc3ccccc3c2c1CC(C)(C)C`, the melting point was 240 °C.

`COc1ccc(-c2cn([C@H]3CN4CCC3CC4)nn2)cn1` had a melting point of 155 °C.

Consider `N#Cc1cnn2c1N(C(=O)CN1CCN(C(=O)OCc3ccccc3)CC1)CC=C2c1cccc(C(F)(F)F)c1`, for which the melting point is 113 to 115 °C.

Molecule `CN1CC(CCCO)CC2(OCCO)c3cccc4[nH]cc(c34)CC12` (stereo unspecified) came in with a melting point of 212 to 215 °C.

In turn, `COC(=O)C=Cc1cc(OC)ccc1-c1ccccc1` returned a melting point of 175 to 177 °C.

`O=C1NC(=O)C(C2CC=CCC2)O1` (stereo unspecified): the melting point was in the range of 83 to 86 °C.

`O=C(Nc1ccc(C(F)(F)F)cc1)N1CC2CCc3ccccc3C2=N1` (stereo unspecified) displayed a melting point of 149 to 151 °C.

The molecule `COc1ccc(-c2ccc3ccccc3c2C(=O)N(C)C)cc1` showed a melting point of 194 to 195 °C.

On to `CC1N(CCCCS(=O)(=O)O)c2ccc3ccccc3c2C1(C)C` (stereo unspecified), for which the melting point was determined as 263 °C.

In turn, `CN1OC(C=Cc2ccccc2)CC1(Cn1ccnc1)c1ccc2ccccc2c1` (stereo unspecified) returned a melting point of 166 to 169 °C.

Take `CON(C)C(=O)Nc1cc(C(C)(C)C)on1`: the melting point lay in the range of 106 to 107 °C.

On to `COc1cc(OC)nc(NS(=O)(=O)C(C#N)C(C)C)n1` (stereo unspecified), for which the melting point is 91 to 93 °C.

`N#Cc1ccc(-c2ccc(Cl)cc2)nc1Cl` gave a melting point of 179 to 181 °C.

For `Oc1ccc(NC2CCc3cc(O)ccc3C2)cc1` (stereo unspecified), the melting point is 193 to 195 °C.

`CON=Cc1nc2c(N)nc3cc(-c4ccccc4)ccc3c2s1`: the melting point lay within 259 to 261 °C.

For the molecule `COCc1c(C(=O)NC(C)C)ncc2[nH]c3cccc(Oc4ccc(Cl)cc4)c3c12`, the melting point worked out at 255 °C.

Take `CNC(=O)c1ccc(Cl)nc1`: the melting point lay in the range of 150 to 154 °C.

`COc1cc2nc(SC)c(C#N)c(C)c2cc1OCc1ccccc1` had a melting point of 171 to 174 °C.

With `O=C(NCCO)c1[nH]c2ccc(Cl)cc2c1-c1ccccc1F`, the melting point lay in the range of 178 to 180 °C.

Molecule `Cc1ccccc1C=C1CCc2c1oc1ccc(C#N)cc1c2=O` displayed a melting point of 260 to 262 °C.

Consider `CN1Cc2cccnc2N(c2cccc(C(F)(F)F)c2)C1=O`, for which the melting point was 122 to 124 °C.

Consider `COc1cccc(CNC(=O)c2nc3ccc(F)c(OCCc4ccc(NS(N)(=O)=O)cc4)c3c(=O)[nH]2)c1`, for which the melting point is 204 to 206 °C.

For `CS(=O)(=O)N(Cl)C(=O)c1cc(Oc2ccc(C(F)(F)F)cc2Cl)ccc1[N+](=O)[O-]`, the melting point lay within 160 to 161 °C.

Molecule `C=C(c1cc(F)ccc1O)n1ccnc1` had a melting point of 164 to 166 °C.

The molecule `O=C(Nc1ccc2cc(CN3CCC(CCO)CC3)cnc2c1)c1ccc(-c2ccc(Cl)cc2)cc1` registered a melting point of 204 °C.

Take `CC(=O)OC1CSC(Oc2ccncc2)C(OC(C)=O)C1OC(C)=O` (stereo unspecified): the melting point lay in the range of 152 to 158 °C.

As for `CC(=O)Nc1cccc(S(=O)(=O)c2cc(O)c(O)cc2C)c1`, the melting point lay in the range of 220 to 222 °C.

Take `CCOC(=O)C(C)(C)OC(=O)c1cc(-n2c(=O)cc(CC)[nH]c2=O)c(F)cc1Cl`: the melting point fell in the range of 166 to 167 °C.

For `O=C(c1cccc(Br)c1)C(Br)C(Br)c1cc(Br)ccc1[N+](=O)[O-]` (stereo unspecified), the melting point was in the range of 187 to 188 °C.

As to `O=[N+]([O-])c1ccc(F)c(-c2cccnc2)c1F`, the melting point was in the range of 68 to 70 °C.

`O=C(Nc1cnccc1C(=O)O)OCc1cc2cc(-c3ccccc3)ccc2o1` registered a melting point of 236 to 239 °C.

In turn, `NC(N)=NC(=O)c1ccccc1Sc1ccccc1C(=O)N=C(N)N` registered a melting point above 220 °C.
